Experimental data: BigSolDB 2.1

CN1C(C(=O)Nc2ccccn2)=C(O)c2sc(Cl)cc2S1(=O)=O
Details | solubility (mole fraction)
in PEG-400, 298.15 K | 0.00861
in PEG-400, 303.15 K | 0.0099
in PEG-400, 308.15 K | 0.0112
in PEG-400, 313.15 K | 0.013
in PEG-400, 323.15 K | 0.0171

in water
Details | solubility (mole fraction)
298.15 K | 2.9e-06
303.15 K | 4.11e-06
308.15 K | 5.62e-06
313.15 K | 7.41e-06
323.15 K | 1.2e-05
